Values joined by “and” are separate entries in the source; they are usually repeats but may differ in a detail not shown here. Equal entries are not always repeated.
Target: SSTR2 (Homo sapiens, UniProt P30874)
Test: SSTRs Gi-mediated cAMP inhibition, GloSensor, HEK293, 5 μM forskolin, 15 min room temperature (SSTR2 wild-type);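 on Bottom (best-fit value): normalized to the maximal wild-type response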;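 on Bottom (best-fit): normalized to the maximal wild-type response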;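 on Span (best-fit value): normalized to the maximal wild-type response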;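 on Span (best-fit): normalized to the maximal wild-type response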;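 on Top (best-fit value): normalized to the maximal wild-type response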;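 on Top (best-fit): normalized to the maximal wild-type response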
Format: cell-based
Parameters: Best-fit Top, cAMP inhibition / Span, cAMP inhibition / Best-fit Bottom / Best-fit Top / Best-fit Span / Bottom / Span (best-fit value), cAMP inhibition / Top (best-fit value), cAMP inhibition: scale not given here
Details: for Best-fit Top, cAMP inhibition / Span, cAMP inhibition: octreotide
Experimental: The levels of the intracellular 3′, 5′-cyclic AMP (cAMP) were measured by the GloSensor cAMP assay (Promega) as described in the previous studies[28],[41] which has been widely used. The human full-length SSTRs and mutants were cloned into the pcDNA3.1+ vector with a HA signal sequence followed by a Flag tag at the N-terminus. HEK293 cells (ATCC, CRL-1573) were seeded into 6-well microplates at a density of 1.0 × 10^6 cells/well and cultured for 24 h at 37 °C with 5% CO2. Cells were then co-transfected with SSTR wild-type or mutants and GloSensor plasmids. After 24 h of transfection, the cells were dissociated with TrypLE™ Express Enzyme (1X) (Thermo Fisher Scientific) and collected by centrifugation at 500 × g for 5 min. Then the collected cells were suspended in Hank’s balanced salt solution [HBSS (Thermo Fisher Scientific)] supplemented with […] (YEASEN), and then the suspension cells were seeded into 96-well plates with 90 μl/well. After incubating at room temperature for 40 min, 5 μM forskolin and ligands diluted in HBSS were added to each well and the plates were incubated at room temperature for 15 min. […] were measured using the Synergy H1 microplate reader (BioTek) and the data presented are means of at least three independent experiments.

[1] = cAMP inhibition, SSTR2 WT-1 (run 1)
[2] = cAMP inhibition, SSTR2 WT-2 (run 2)
[3] = cAMP inhibition, SSTR2 WT-3 (run 3)
[4] = SSTR2 WT-1, run 1 (WT of each mutant's set)
[5] = SSTR2 WT-2, run 2 (WT of each mutant's set)
[6] = SSTR2 WT-3, run 3 (WT of each mutant's set)

Sequence of SSTR2 (P30874 whole entry): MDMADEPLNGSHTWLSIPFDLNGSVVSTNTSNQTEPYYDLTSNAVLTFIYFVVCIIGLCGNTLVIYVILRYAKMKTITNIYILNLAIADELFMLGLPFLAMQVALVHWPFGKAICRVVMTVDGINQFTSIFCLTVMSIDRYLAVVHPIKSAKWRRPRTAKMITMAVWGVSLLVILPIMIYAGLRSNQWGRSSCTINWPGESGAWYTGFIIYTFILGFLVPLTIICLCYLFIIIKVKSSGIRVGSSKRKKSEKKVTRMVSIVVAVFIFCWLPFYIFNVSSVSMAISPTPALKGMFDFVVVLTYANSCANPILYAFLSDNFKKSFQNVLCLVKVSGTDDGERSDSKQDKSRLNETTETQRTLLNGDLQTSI

## C[C@@H](O)[C@@H]1NC(=O)[C@H](CCCCN)NC(=O)[C@@H](Cc2c[nH]c3ccccc23)NC(=O)[C@H](Cc2ccccc2)NC(=O)[C@@H](NC(=O)[C@H](N)Cc2ccccc2)CSSC[C@@H](C(=O)N[C@H](CO)[C@@H](C)O)NC1=O [octreotide]
HEK293, Gi signaling, SSTR2 WT, n=6, read-out: Emax
  Emax: 100%
SSTR2, Fig. 1
  Activation potency level: nanomolar level
WT-1, run 1, batch of I284A
  Bottom (best-fit value): 6.42
  Span (best-fit value): 102.3
  Top (best-fit value): 108.8
WT-1, run 1, batch of P286A
  Bottom (best-fit value): 0.4925
  Span (best-fit value): 108.4
  Top (best-fit value): 108.9
WT-1, run 1, batch of S285A
  Bottom (best-fit value): -1.909
  Span (best-fit value): 108.3
  Top (best-fit value): 106.4
WT-1, run 1, batch of T194A
  Bottom (best-fit value): 5.269
WT-1, run 1, batch of T287A
  Bottom (best-fit value): 5.269
  Span (best-fit value): 95.18
  Top (best-fit value): 100.5
WT-1, run 1, batch of W188A
  LogEC50 (best-fit value): -10.06
  Span (best-fit value): 114.6
  Top (best-fit value): 120.5
WT-1 of D295A set
  Best-fit Bottom: -0.7512
  Best-fit Span: 96.76
  Best-fit Top: 96
WT-1 of F208A set
  Span (best-fit): 95.18
WT-1 of F265A set
  Bottom (best-fit): 9.705
  Top (best-fit): 105
WT-1 of F272A set
  Bottom (best-fit): 5.108
  Span (best-fit): 89.16
  Top (best-fit): 94.27
WT-1 of F294A set
  Best-fit Bottom: 5.269
  Best-fit Span: 95.18
  Best-fit Top: 100.5
WT-1 of K291A set
  Best-fit Bottom: 7.96
  Best-fit Span: 79.36
  Best-fit Top: 87.32
WT-1 of L290A set
  Best-fit Bottom: -1.909
  Best-fit Span: 108.3
  Best-fit Top: 106.4
WT-1 of N276A set
  Bottom (best-fit): 7.96
  Span (best-fit): 79.36
  Top (best-fit): 87.32
WT-1 of P220A set
  Bottom (best-fit): 21.28
  Span (best-fit): 73.55
  Top (best-fit): 94.83
WT-1 of S279A set
  Best-fit Bottom: 5.108
  Best-fit Span: 89.16
  Best-fit Top: 94.27
WT-1 of W269A set
  Bottom (best-fit): 6.42
  Span (best-fit): 102.3
  Top (best-fit): 108.8
WT-1 of Y302A set
  Best-fit Bottom: 6.42
  Best-fit Span: 102.3
  Best-fit Top: 108.8
WT-2, run 2, batch of I284A
  Bottom (best-fit value): -0.5171
  Span (best-fit value): 111.1
  Top (best-fit value): 110.6
WT-2, run 2, batch of P286A
  Bottom (best-fit value): 4.88
  LogEC50 (best-fit value): -10.01
  Span (best-fit value): 102.3
  Top (best-fit value): 107.2
WT-2, run 2, batch of S285A
  Bottom (best-fit value): 5.269
  Span (best-fit value): 95.18
  Top (best-fit value): 100.5
WT-2, run 2, batch of T194A
  Bottom (best-fit value): 2.714
WT-2, run 2, batch of T287A
  Bottom (best-fit value): -7.526
  Span (best-fit value): 120.1
  Top (best-fit value): 112.6
WT-2, run 2, batch of W188A
  Bottom (best-fit value): 4.88
  LogEC50 (best-fit value): -10.01
  Span (best-fit value): 102.3
  Top (best-fit value): 107.2
WT-2 of D295A set
  Best-fit Bottom: -0.7512
  Best-fit Span: 96.76
  Best-fit Top: 96
WT-2 of F208A set
  Span (best-fit): 79.83
WT-2 of F265A set
  Bottom (best-fit): 21.28
  Span (best-fit): 73.55
  Top (best-fit): 94.83
WT-2 of F272A set
  Bottom (best-fit): 5.269
  Span (best-fit): 95.18
  Top (best-fit): 100.5
WT-2 of F294A set
  Best-fit Bottom: 2.714
  Best-fit Span: 101.1
  Best-fit Top: 103.8
WT-2 of K291A set
  Best-fit Bottom: 0.9124
  Best-fit Span: 101.5
  Best-fit Top: 102.4
WT-2 of L290A set
  Best-fit Bottom: 5.269
  Best-fit Span: 95.18
  Best-fit Top: 100.5
WT-2 of N276A set
  Bottom (best-fit): 2.714
  Span (best-fit): 101.1
  Top (best-fit): 103.8
WT-2 of P220A set
  Bottom (best-fit): 2.714
  Span (best-fit): 101.1
  Top (best-fit): 103.8
WT-2 of S279A set
  Best-fit Bottom: -6.301
  Best-fit Span: 114.5
  Best-fit Top: 108.2
WT-2 of W269A set
  Bottom (best-fit): -0.5171
  Span (best-fit): 111.1
  Top (best-fit): 110.6
WT-2 of Y302A set
  Best-fit Bottom: -0.5171
  Best-fit Span: 111.1
  Best-fit Top: 110.6
WT-3, run 3, batch of I284A
  Bottom (best-fit value): 5.269
  Span (best-fit value): 95.18
  Top (best-fit value): 100.5
WT-3, run 3, batch of P286A
  Bottom (best-fit value): 0.3403
  Span (best-fit value): 101
  Top (best-fit value): 101.3
WT-3, run 3, batch of S285A
  Bottom (best-fit value): 0.3403
  Span (best-fit value): 101
  Top (best-fit value): 101.3
WT-3, run 3, batch of T194A
  Bottom (best-fit value): 9.705
WT-3, run 3, batch of T287A
  Bottom (best-fit value): 0.3403
  Span (best-fit value): 101
  Top (best-fit value): 101.3
WT-3, run 3, batch of W188A
  Bottom (best-fit value): 0.3403
  Span (best-fit value): 101
  Top (best-fit value): 101.3
WT-3 of D295A set
  Best-fit Bottom: 5.262
  Best-fit Span: 106.6
  Best-fit Top: 111.9
WT-3 of F208A set
  Span (best-fit): 108.3
WT-3 of F265A set
  Bottom (best-fit): 9.705
  Span (best-fit): 95.34
  Top (best-fit): 105
WT-3 of F272A set
  Bottom (best-fit): 21.28
  Span (best-fit): 73.55
  Top (best-fit): 94.83
WT-3 of F294A set
  Best-fit Bottom: -6.301
  Best-fit Span: 114.5
  Best-fit Top: 108.2
WT-3 of K291A set
  Best-fit Bottom: 9.705
  Best-fit Span: 95.34
  Best-fit Top: 105
WT-3 of L290A set
  Best-fit Bottom: 0.5044
  Best-fit Span: 101.8
  Best-fit Top: 102.3
WT-3 of N276A set
  Bottom (best-fit): 9.705
  Span (best-fit): 95.34
  Top (best-fit): 105
WT-3 of P220A set
  Bottom (best-fit): 9.705
  Span (best-fit): 95.34
  Top (best-fit): 105
WT-3 of S279A set
  Best-fit Bottom: 5.269
  Best-fit Span: 95.18
  Best-fit Top: 100.5
WT-3 of W269A set
  Bottom (best-fit): 5.108
  Span (best-fit): 89.16
  Top (best-fit): 94.27
WT-3 of Y302A set
  Best-fit Bottom: 5.269
  Best-fit Span: 95.18
  Best-fit Top: 100.5
[1]
  Span (best-fit value): 89.16 and 95.18 and 102.3 and 73.55 and 108.3
  Top (best-fit value): 94.27 and 100.5 and 105.4 and 94.83 and 106.4
[2]
  Span (best-fit value): 114.5 and 95.18 and 103.8 and 101.1
  Top (best-fit value): 108.2 and 100.5 and 107.6 and 103.8 and 95.77
[3]
  Span (best-fit value): 114.5 and 89.16 and 108 and 95.34 and 149.7
  Top (best-fit value): 108.2 and 94.27 and 109.2 and 105 and 143.2 and 106.4
cAMP inhibition, SSTR2-WT, run 1
  Top (best-fit): 101.1
cAMP inhibition, SSTR2-WT, run 2
  Top (best-fit): 101.1
cAMP inhibition, SSTR2-WT, run 3
  Top (best-fit): 96.66
cAMP inhibition, SSTR2-WT, run 4
  Top (best-fit): 105.3
[4]
  Best-fit Top, cAMP inhibition: 94.27 and 103.3 and 100.5 and 96 and 105 and 108.2
  Span, cAMP inhibition: 89.16 and 99.34 and 96.76 and 114.5
[5]
  Best-fit Top, cAMP inhibition: 103.8 and 107.6 and 101.1 and 105.4 and 106.4
  Span, cAMP inhibition: 101.1 and 103.8 and 99.15 and 102.3 and 108.3
[6]
  Best-fit Top, cAMP inhibition: 103.8 and 101.3 and 105 and 107.6 and 103.3
  Span, cAMP inhibition: 101.1 and 101 and 103.8 and 99.34

Reference: paper PMC9944328 (Nature Communications, 2023)
